Tested on: MDA-MB-231, MCF7, HCT-116, Ramos, OPM-1, PANC-1 and U2OS cell lines
Assay: Dynamic BH3 profiling in other types of cancer cell lines
Type: cell-based, human
Settings: 1μM, 16h
Description: DBP using Bim peptide was carried out as described previously [24]-[26]. After treatment with BKA-073, venetoclax (ABT-199) or DMSO control for 16h, cells were collected, washed and resuspended at 2 x 10^6 cells/ mL in mannitol experimental buffer (MEB) [150 mM D-mannitol, 10 mM HEPES-KOH (pH 7.5), 50 mM KCl, 20 μM EGTA, 20 μM EDTA, 0.1% BSA, and 5 mM succinate] as described. One volume of the 4x cell suspension was added to one volume of a 4x dye solution containing 4 μM JC-1, […] oligomycin, 0.02% digitonin, 20mM β-mercaptoethanol in MEB. The 2x cell/dye mixture was allowed to rest for 5-10 min at room temperature to allow for permeabilization and JC-1 staining. A total of 15μl of the 2x cell/dye mixture was loaded into a 384-well plate that contained 15µL of Bim BH3 peptide (0.03, 0.1, 0.3, 1, and 3 μM) in MEB, shaken for 15 s inside the reader, and the fluorescence at 590 nm monitored every 5 min for 180 min at 32 °C. The dynamic BH3 profile (∆ % Priming) was calculated as described [24]-[26].
Figure S2. BKA-073 induces mitochondrial priming and apoptosis in various type of cancers. (A) Expression levels of Bak were analyzed by Western blot in various type of cancer cell lines. (B-C) Various type of cancer cell lines were treated with BKA -073 (1µM) for 16h or 72h, followed by analysis of dynamic BH3 profiling (B) or apoptotic cell death (C), respectively. […]

COc1ccc2nc3ccccc3c(NCCNCC(C)O)c2c1 (stereo not shown) [BKA-073]
induction of mitochondrial priming: potently induced

From article PMC8344021, “Discovery of Small Molecule Bak Activator for Lung Cancer Therapy” (Theranostics, 2021)
